Several values for one entry are separate records, joined by “and”; a condition that tells them apart may be missing. Equal entries are not always repeated. Where two headings read alike, the source gives them in different places. Bounds are passed on as bounds.

Data on one molecule can be found in article PMC10425210 (The Journal of Clinical Investigation, 2023).

The subject of data set [1] is SHIV-SF162P3. In words: Antiviral assay in rhesus PBMCs acutely infected with SHIV.SF162P3. Type of data set: cell-based, rhesus macaque. The conditions noted are these: for SHIV Replication (Mean): representative assay, N 3. The procedure: Freshly isolated PBMCs from 3 male Indian rhesus macaque (Macaca mulatta) donors were obtained from Human Cells Biosciences. Rhesus PBMCs were cultured in RPMI-1640 cell culture media (Life Technologies) supplemented with 10% heat-inactivated FBS (Hyclone), 2 mM glutamine, and 100 units/mL penicillin plus 100 μg/mL streptomycin (complete RPMI). Prior to their use in antiviral assays, PBMCs from 3 independent donors were pooled and activated at a density of 3 × 10^6 cells per mL for 72 hours at 37°C by addition of 1 μg/mL PHA (Sigma-Aldrich) and 50 units/mL recombinant human IL-2 (Roche Diagnostics).
Briefly, PHA/IL-2–stimulated rhesus PBMCs were infected in bulk culture with SHIV.SF162P3 at a concentration of 130 pg p27 equivalent per million PBMCs. Cells were maintained in suspension by gently rocking the cultures mixed with virus inoculum for 3 hours at 37°C. Cells were then pelleted by centrifugation at 500g for 5 minutes, washed twice with complete RPMI to remove any unadsorbed virus, and seeded into 96-well plates at a cell density of 2 × 10^5 cells per well in 100 μL. […] Cultures were incubated in a 5% CO2 incubator at 37°C for 7 days. The cell-free supernatants derived from the PBMC cultures were harvested 7 days after infection, and the amount of SHIV present was quantified using a SIV p27 antigen capture ELISA assay (item 5436, Advanced Bioscience Laboratories Inc.) performed according to the manufacturer’s protocol.

Data set [2] relates to HIV-1. The experiment in a line: Antiviral assay against HIV-1 in MT-4 cells. It counts as cell-based. The note with it: HIV-1IIIb in MT-4 cells.
Data set [3] can be described thus: Safety and tolerability of subcutaneous LEN dosing. It counts as in vivo, rhesus macaques. The text has this:
Injections at all dose levels were generally well tolerated without notable clinical observations. […] Grade 1 edema and/or erythema was observed across multiple time points and animals from all 5 dose groups and was fully resolved by week 11 after dose.
All animals were housed at Bioqual Inc. For the in vivo SHIV stock titration study, 8 untreated outbred Indian-origin male rhesus macaques aged 3–5 years were challenged intrarectally per round for a total of 5 challenge rounds using increasing virus doses ranging from 0.625 to 100 TCID50, with the 100 TCID50 round performed twice for increased resolution (Supplemental Table 2). Plasma viral load was measured to confirm the infection status. […] Injection sites were monitored daily by veterinary staff for 2 weeks and then weekly through the end of study. On week 7, 11 animals were challenged by the intrarectal route with 1 mL RPMI containing 100 TCID50 SHIV-SF162P3. Whole blood was collected and processed into plasma and PBMCs as necessary for the assessment of routine hematology and clinical chemistry, viral load analysis, serology, and the bioanalysis of drug levels. Animals were considered protected if they remained SHIV negative by a plasma PCR assay and seronegative by enzyme immunoassay through week 10 after challenge.

The subject of data set [4] is HIV-1. Details: method as in ref 11 = [11]; PMID 32612233; doi:10.1038/s41586-020-2443-1; 11 Link JO et al Clinical targeting of HIV capsid protein with a long-acting small molecule Nature 2020 584 7822 614 618 10.1038/s41586-020-2443-1 32612233 PMC8188729. The note with it: cited from earlier work.
The test system of data set [5] is HIV-1. Details: method as in ref 11, 12 = [11]; PMID 32612233; doi:10.1038/s41586-020-2443-1; 11 Link JO et al Clinical targeting of HIV capsid protein with a long-acting small molecule Nature 2020 584 7822 614 618 10.1038/s41586-020-2443-1 32612233 PMC8188729 || [12]; 12 Yant SR, et al. GS-6207, A potent and selective first-in-class long-acting HIV-1 capsid inhibitor. Conference on Retroviruses and Opportunistic Infections. https://www.croiconference.org/abstract/g. The note with it: HIV-1 in MT-4 cells; cited from earlier work.

In general, EC50 refers to the concentration at which the effect is half-maximal. Usually EC95 stands for the concentration needed for an effect of 95%. Consider `CC(C)(C#Cc1ccc(-c2ccc(Cl)c3c(NS(C)(=O)=O)nn(CC(F)(F)F)c23)c([C@H](Cc2cc(F)cc(F)c2)NC(=O)Cn2nc(C(F)(F)F)c3c2C(F)(F)[C@@H]2C[C@H]32)n1)S(C)(=O)=O` [LEN, Lenacapavir], for which the “SHIV Replication (Mean)” value in data set [1] (LEN 0.011 nM) is on record as 98; in data set [1] (LEN 0.034 nM), 91; in data set [1] (LEN 0.103 nM), 99; in data set [1] (LEN 0.309 nM), 60; in data set [1] (LEN 0.926 nM), 18; in data set [1] (LEN 2.778 nM), 1. The “SHIV Replication (Mean)” value in data set [1] (LEN 8.333 nM) and in data set [1] (LEN 25 nM) was 0 each time. Further, the EC50 in data set [1] (Macaca mulatta, PBMC, 168 h) was 0.39 ± 0.16 nM; in data set [4] (23 HIV-1 clinical isolates, mitogen-activated human PBMCs, 7-day assay) it was 0.05 ± 0.03 nM; in data set [5] it was 0.1 nM. Moreover, in data set [1] (SHIV, rhesus PBMCs, EC95 x rhesus plasma shift), the “paEC95 (protein-adjusted EC95)” value was 8.80 nM and 8.8 nM and 8.80 ± 3.69^E nM. Also, the EC95 in data set [1] (SHIV-SF162P3, rhesus PBMCs, EC95 = EC50 x (95/5)^1/n) was 0.91 nM and 0.91 ± 0.38 nM; in data set [4] (23 HIV-1 isolates, human PBMCs), 0.12 nM and 0.12 ± 0.07 nM. Besides, in data set [2], the “Hill coefficient (n)” value worked out at 3.51 ± 0.31. Also, in data set [3] (all dose levels tested, 5-75 mg/kg), the “safety and tolerability of subcutaneous injection” value is “safe and well tolerated”. The “time by which Grade 1 edema and/or erythema was fully resolved” value in data set [3] (male, outbred Indian-origin, rhesus monkey, in vivo) was at most 11 week after dose. For the same molecule, the Hematology analyses result in data set [3] (rhesus monkey, in vivo) is recorded as “no abnormal values”.
